The text below walks through data of ChEMBL document CHEMBL4354809, “p97: An Emerging Target for Cancer, Neurodegenerative Diseases, and Viral Infections” (J Med Chem, 2020).

The target in experiment [1] is T1, Transitional endoplasmic reticulum ATPase (Homo sapiens, UniProt P55072). In words: Binding affinity to p97 (unknown origin) by SPR assay.
The subject of another experiment is JeKo-1. In words: Growth inhibition of human JeKo1 cells assessed as reduction in cell viability by MTT assay. It counts as functional, cell-based. Background: Formazan colour is commonly taken as a measure of viable cells.
For experiment [2], the target named is T1, Transitional endoplasmic reticulum ATPase. In words: Inhibition of p97 (unknown origin) by ADP-Glo assay.
The target is the same in experiment [3]. In words: Inhibition of p97 in human HeLa cells assessed as reduction in p97-dependent UbG76V-GFP degradation incubated for 1 hr by […] reporter gene assay. It is filed as cell-based. On the technique in general: A reporter such as luciferase makes a cellular process visible.
Another experiment deals with Human betaherpesvirus 5. Description: Antiviral activity against Human Cytomegalovirus. It counts as functional, organism-based.
For experiment [4], the target named is T1, Transitional endoplasmic reticulum ATPase. In words: Inhibition of human p97.
Experiment [5] relates to Panel NCI-60 (60 carcinoma cell lines). In words: Growth inhibition of human NCI60 cells. It counts as functional, cell-based.
The target in experiment [6] is T1, Transitional endoplasmic reticulum ATPase. Description: Binding affinity to GST-tagged p97 (unknown origin) by CD spectroscopy.
The subject of a further experiment is HCT-116. In words: Antiproliferative activity against human HCT116 cells. It is filed as functional, cell-based.
Experiment [7] addresses T1, Transitional endoplasmic reticulum ATPase. In words: Inhibition of p97 (unknown origin) expressed in Escherichia coli BL21 (DE3) pre-incubated for 10 mins before ATP addition and measured up to 120 mins measured by malachite green assay.
The target is the same in experiment [8]. Description: Inhibition of p97 in HEK293 cells co-expressing GFP and hemagglutinin assessed as reduction in p97-dependent ERAD pathway by immunoblotting analysis. It counts as cell-based. In general terms: Immunoblotting shows a protein as a band on a membrane.
Experiment [9] shares this target. In words: Inhibition of p97 (unknown origin) by malachite green assay.
Experiment [10] deals with T2, Vacuolar protein sorting-associated protein 4B (Homo sapiens, UniProt O75351).
T2 sequence (O75351 whole entry): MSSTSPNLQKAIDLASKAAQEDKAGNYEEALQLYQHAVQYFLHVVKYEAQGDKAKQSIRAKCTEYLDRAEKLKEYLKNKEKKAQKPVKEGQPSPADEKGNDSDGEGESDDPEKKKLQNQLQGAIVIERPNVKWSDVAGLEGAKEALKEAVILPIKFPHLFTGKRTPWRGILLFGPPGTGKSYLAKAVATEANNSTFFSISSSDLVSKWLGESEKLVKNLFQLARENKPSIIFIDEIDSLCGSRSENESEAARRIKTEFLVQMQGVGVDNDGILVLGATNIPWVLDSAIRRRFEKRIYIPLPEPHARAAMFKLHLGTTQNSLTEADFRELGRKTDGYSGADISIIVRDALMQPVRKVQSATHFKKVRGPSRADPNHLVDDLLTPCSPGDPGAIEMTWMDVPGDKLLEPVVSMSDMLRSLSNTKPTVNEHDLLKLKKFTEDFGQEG
Description: Inhibition of VPS4B (unknown origin) assessed as reduction in ATPase activity in presence of activating fragment of substrate CHMP1B.

The target in experiment [11] is T2, Vacuolar protein sorting-associated protein 4B. Description: Inhibition of VPS4B (unknown origin) by malachite green assay.
The species named for the next experiment is Homo sapiens. In words: Selectivity ratio of IC50 for inhibition of p97 (unknown origin) by malachite green assay to IC50 for inhibition of VPS4B (unknown origin) by malachite green assay.
Experiment [12] has as its target ATP-dependent clpX-like chaperone, mitochondrial (Homo sapiens, UniProt O76031). Description: Inhibition of ClpX (unknown origin) expressed in Escherichia coli BL21 (DE3) pre-incubated for 10 mins before ATP addition and measured up to 120 mins measured by malachite green assay.
In experiment [13] the target is T1, Transitional endoplasmic reticulum ATPase. Description: Inhibition of p97 (unknown origin) assessed as reduction in ATPase activity.
Experiment [14] shares this target. Description: Inhibition of GST-fused VCP (unknown origin) expressed in Escherichia coli BL21 star (DE3) pre-incubated for 60 mins before ATP addition and measured after 60 mins by kinase Glo-Plus reagent based assay.

A value given as a limit tells only on which side of the number the result lay.

T1 sequence (P55072 whole entry): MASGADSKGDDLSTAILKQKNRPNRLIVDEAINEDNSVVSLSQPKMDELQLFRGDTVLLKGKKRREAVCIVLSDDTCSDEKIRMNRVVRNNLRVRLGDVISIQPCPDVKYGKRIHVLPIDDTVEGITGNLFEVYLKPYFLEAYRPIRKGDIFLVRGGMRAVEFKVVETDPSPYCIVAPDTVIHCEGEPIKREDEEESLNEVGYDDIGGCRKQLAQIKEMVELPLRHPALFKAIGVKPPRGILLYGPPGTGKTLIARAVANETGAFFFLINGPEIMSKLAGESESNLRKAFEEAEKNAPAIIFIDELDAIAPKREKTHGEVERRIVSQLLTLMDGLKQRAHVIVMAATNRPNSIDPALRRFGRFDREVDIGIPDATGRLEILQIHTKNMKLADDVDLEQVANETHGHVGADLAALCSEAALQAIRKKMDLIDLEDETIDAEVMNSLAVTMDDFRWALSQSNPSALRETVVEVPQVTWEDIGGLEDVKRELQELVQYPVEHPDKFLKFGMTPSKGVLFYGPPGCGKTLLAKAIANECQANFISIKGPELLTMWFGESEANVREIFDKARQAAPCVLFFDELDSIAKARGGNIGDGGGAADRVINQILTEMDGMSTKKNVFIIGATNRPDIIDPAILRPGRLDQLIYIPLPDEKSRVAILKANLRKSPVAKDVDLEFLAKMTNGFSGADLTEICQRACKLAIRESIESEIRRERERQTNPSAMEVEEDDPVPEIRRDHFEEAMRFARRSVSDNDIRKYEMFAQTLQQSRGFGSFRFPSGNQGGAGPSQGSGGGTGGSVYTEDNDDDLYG
Sequence of ATP-dependent clpX-like chaperone, mitochondrial (O76031 whole entry): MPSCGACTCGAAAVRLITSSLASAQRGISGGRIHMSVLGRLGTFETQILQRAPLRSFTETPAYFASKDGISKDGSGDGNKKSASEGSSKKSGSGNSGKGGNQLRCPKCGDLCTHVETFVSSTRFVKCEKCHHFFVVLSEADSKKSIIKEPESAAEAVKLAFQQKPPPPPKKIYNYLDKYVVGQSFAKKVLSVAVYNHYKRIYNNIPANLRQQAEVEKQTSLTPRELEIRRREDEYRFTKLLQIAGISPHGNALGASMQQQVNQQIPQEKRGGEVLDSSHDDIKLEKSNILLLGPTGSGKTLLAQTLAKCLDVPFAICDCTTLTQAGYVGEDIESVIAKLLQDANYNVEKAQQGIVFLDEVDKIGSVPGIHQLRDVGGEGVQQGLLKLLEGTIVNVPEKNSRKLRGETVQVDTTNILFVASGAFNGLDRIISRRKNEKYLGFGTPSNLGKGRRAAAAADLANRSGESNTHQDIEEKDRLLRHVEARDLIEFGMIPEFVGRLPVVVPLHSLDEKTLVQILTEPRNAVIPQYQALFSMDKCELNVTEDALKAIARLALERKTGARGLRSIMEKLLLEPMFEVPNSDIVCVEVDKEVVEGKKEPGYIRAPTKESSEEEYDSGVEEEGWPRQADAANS

As a reminder, the Kd is the free concentration of one partner at which half of the binding sites on the other are occupied at equilibrium, for simple one-to-one binding. As a reminder, the IC50 is the concentration that inhibits the measured activity by half. Regarding `CC1(C)C(N(O)C(=O)Nc2ccc(Cl)cc2)N(c2ccc(Cl)cc2)C(=O)N1CC(=O)N/N=C/C=C/c1ccc([N+](=O)[O-])o1` (stereo not drawn), in [1], the Kd was in the range of 5000 to 10000 nM. Besides, the IC50 in the experiment on JeKo-1 came out at 4000 nM. In [2], `CC(C)N1CCN(CCNC2CCN(c3cccc(-c4cc5cc(C#N)ccc5[nH]4)c3)CC2)CC1` had an IC50 of 44 nM. Consider `Clc1ccccc1C(c1ccccc1)(c1ccccc1)n1ccnc1` [CLOTRIMAZOLE], for which the IC50 in experiment [3] is 1400 nM. `Cc1cc(OCc2nnc(SC3CCCC3)n2-c2cccnc2)ccc1-c1ccc(S(C)(=O)=O)cc1` displayed an IC50 in the experiment with Human betaherpesvirus 5 of 130 nM.

With `CC(C)N1CCN(CCNC2CCN(c3cccc(-c4cc5cc(F)ccc5[nH]4)c3)CC2)CC1`, the values for the IC50 in experiment [4] and in [5] were 20 to 70 nM and 316 to 2000 nM, respectively. The molecule `CC(C)N1CCN(CCNC2CCN(c3cccc(-c4cc5cc(C(=O)N(C)C)ccc5[nH]4)c3)CC2)CC1` yielded an IC50 in [2] of 31400 nM. On to `O=C(/C=C1\Nc2ccccc2C(=O)N2CCC[C@@H]12)/C=C/c1c[nH]c2ccc(I)cc12`, for which, in experiment [6], the Kd worked out at 7000 nM. For the molecule `Nc1nc2c(ncn2COC(CO)CO)c(=O)[nH]1` [GANCICLOVIR], the IC50 with Human betaherpesvirus 5 is 1300 nM. Consider `O=C(CCl)Nc1cccc(NC2=NS(=O)(=O)c3ccccc32)c1`, for which inhibition in the experiment with HCT-116 was half-maximal at 3000 nM (IC50).

Molecule `CC(C)N1CCN(CCNC2CCN(c3cccc(-c4cc5cc(C(F)(F)F)ccc5[nH]4)c3)CC2)CC1` gave an IC50 in experiment [2] of 4600 nM. For `C[C@H]1CCC/C=C/C(=O)c2c(O)c(Cl)c(O)c(Cl)c2CC(=O)O1`, the IC50 in experiment [7] came to 15300 nM; in experiment [8], 7900 nM. Regarding `Fc1ccc(C(CCCNCC2CCc3[nH]c4ccc(F)cc4c3C2)c2ccc(F)cc2)cc1` (stereo not drawn), the IC50 in [9] was determined as 7200 nM; in experiment [10] it was 710 nM; in experiment [11] it was 710 nM. In the experiment filed under Homo sapiens, the Ratio IC50 amounted to 10. As for `CC(=O)OCC1=C(C)C[C@H]([C@@H](C)[C@H]2CC[C@H]3[C@@H]4C[C@H]5O[C@]56[C@@H](O)C=CC(=O)[C@]6(C)[C@H]4CC[C@]23C)OC1=O`, the IC50 amounted to 22000 nM in [7] and 9500 nM in [12]. Regarding `[N-]=[N+]=Nc1cccc(-n2c(COc3ccc(CCCO)cc3)nnc2SC2CCCC2)c1`, the IC50 in experiment [13] came out at 1100 nM. Regarding `COc1ccc(C(=O)c2oc3ccccc3c2NC(C)=O)cc1`, in experiment [14], the IC50 is greater than 100000 nM. With `[N-]=[N+]=Nc1cccc(OCc2nnc(SC3CCCC3)n2-c2cccnc2)c1`, the IC50 in [13] is 760 nM.
